This passage reports Kd results from article PMC3985856 (Biochemistry, 2014).

Broadly, the Kd is the concentration at which binding is half-saturated. Low values mean tighter binding, high ones weaker binding.

In this assay the target is T1, BAL (benzaldehyde lyase) (Pseudomonas fluorescens, UniProt Q9F4L3).
T1 sequence (Q9F4L3 1-563): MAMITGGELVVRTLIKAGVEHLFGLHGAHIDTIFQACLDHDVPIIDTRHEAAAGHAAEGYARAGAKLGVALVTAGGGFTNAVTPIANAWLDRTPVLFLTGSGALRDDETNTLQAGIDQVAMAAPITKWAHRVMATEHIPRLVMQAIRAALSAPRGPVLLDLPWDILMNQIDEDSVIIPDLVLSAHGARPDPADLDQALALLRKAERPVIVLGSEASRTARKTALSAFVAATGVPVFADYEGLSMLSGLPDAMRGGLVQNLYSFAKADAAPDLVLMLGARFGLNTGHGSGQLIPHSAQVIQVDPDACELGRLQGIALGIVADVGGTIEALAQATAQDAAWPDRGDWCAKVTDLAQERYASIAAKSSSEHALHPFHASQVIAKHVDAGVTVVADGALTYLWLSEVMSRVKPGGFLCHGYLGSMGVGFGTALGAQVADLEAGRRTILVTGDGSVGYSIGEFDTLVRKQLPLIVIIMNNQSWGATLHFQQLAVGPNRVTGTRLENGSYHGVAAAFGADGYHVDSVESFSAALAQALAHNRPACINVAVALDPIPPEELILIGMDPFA
Briefly: CD titration, Hill fit. In kind it is binding. The conditions noted are these: pH 8.0, 50 mM Tris, 0.2 mM ThDP, 1 mM MgCl2, 30 °C; covalent adduct with ThDP.

Consider `O=C(O)C(=O)/C=C/c1ccc(Cl)cc1` [CPB, (E)-4-(4-chlorophenyl)-2-oxo-3-butenoic acid], for which the Kd was 1100 µM.
